How the values were obtained:
[1] = system: L. cuprina diflubenzuron-resistant strain (Emmaville); assay: In vitro first stage larvae exposure, prevention of adult fly emergence, diflubenzuron-resistant strain; design: species or system Lucilia cuprina
Text: Dicyclanil and diflubenzuron belong to different chemical families but are loosely grouped into a large class commonly known as “insect growth regulators”. Importantly both compounds interfere differently with the various development stages of insects. […] The invention makes use of the fact that dicyclanil will control the strains of blowfly that diflubenzuron is ineffective against.
Fly larvae belonging to a diflubenzuron-susceptible strain (LS) and a diflubenzuron-resistant strain (Emmaville) of L. cuprina are tested. First stage larvae are exposed to differing concentrations (aimed to achieve 0-100% prevention of adult fly emergence) of dicyclanil, diflubenzuron or a combination of the two actives (at the ratio used in the invention). The number of larvae forming pupae and the number of pupae producing viable adult flies are recorded. The level of diflubenzuron resistance in the Emmaville strain prevents achieving complete inhibition of adult fly emergence with diflubenzuron. Maximum mortality is 41% at 300 mg diflubenzuron/kg. The limit of solubility of diflubenzuron precludes the testing of higher concentrations.

[2] = Tissue residue study in sheep; assay type: in vivo; settings: 2, 3, 4, 5, 6 or 17 weeks after treatment with the invention; none above Limit of Quantitation
Procedure: Tissue residue studies are carried out to determine the period after treatment where the produce of treated animals cannot be used for human consumption. The proposed maximum dose rate for the invention is used in this evaluation. Sheep are treated with the invention at the commencement of the study and at pre-defined intervals thereafter, groups of sheep are humanely sacrificed and the appropriate target tissues (liver, kidney, muscle, fat) are recovered and subsequently analyzed (under Good Laboratory Practice conditions) for the presence of active ingredients (and their metabolites if necessary).
The residue definition for dicyclanil in Australia is the sum of dicyclanil and its metabolite CGA 297′107. Considering this, in the course of this study the mean maximum residue concentrations were detected at two and three weeks post-treatment.
The residue definition for diflubenzuron in Australia is expressed as only diflubenzuron. In this study there were no detectable residues in individual tissues (liver, kidney, subcutaneous fat, renal fat) from any animal above the Limit of Quantitation (0.025 mg/kg) at 2, 3, 4, 5, 6 or 17 weeks after treatment.

Structure (SMILES) | Emmaville strain response to dicyclanil ([1]; Emmaville strain compared with LS) | Maximum mortality ([1]; Emmaville strain, 300 mg diflubenzuron/kg) [%] | diflubenzuron residues in individual tissues (liver, kidney, subcutaneous fat, renal fat) [2] [mg/kg]
N#Cc1c(N)nc(NC2CC2)nc1N [dicyclanil, 4,6-diamino-2-cyclopropylaminopyrimidine-5-carbonitrile] | typical of a susceptible strain |  | 
O=C(NC(=O)c1c(F)cccc1F)Nc1ccc(Cl)cc1 [diflubenzuron, 1-(4-chlorophenyl)-3-(2,6-difluorobenzoyl)urea] |  | 41 | < 0.025
